Values joined by “and” are separate entries in the source; they are usually repeats but may differ in a detail not shown here. Equal entries are not always repeated.
What was measured:
MEK-1 phosphorylation = assay: Striatal phospho-MEK-1 immunohistochemistry 1 h after single injection; assay type: in vivo, mouse; conditions: single injection 20 mg/kg i.p., individual mice
Procedure: (§1) Immunohistochemistry was performed as described in Papale et al ([2016]). Briefly, 1 h after blocking in 5% normal goat serum and 0.1% Triton X‐100 solution, free‐floating sections were incubated overnight at 4°C with one of the following primary antibodies: anti‐phospho‐p44/42 MAP kinase (Thr202/Tyr204) (1:200, Cell Signaling Technology #9101), anti‐phospho–Elk‐1 (Ser383) (1:100, Cell Signaling #9181), anti‐phospho‐Kv4.2 (Thr607)‐R (1:100, Santa Cruz sc22254‐R), anti‐phospho‐MSK‐1 (1:100 Cell Signaling Technology #9595), anti‐phospho‐MEK1/2 (Ser218/222) (1:100, sc‐7995 Santa Cruz Biotechnology), c‐Fos (1:100, sc‐52 Santa Cruz Biotechnology), tyrosine Hydroxylase (monoclonal 1:1,000, Sigma Aldrich, Italy) and anti‐DARPP‐32 (H3) (1:100, Santa Cruz Biotechnology, #sc‐271111) overnight at 4°C. […]
(§2) For in vivo immunohistochemistry experiments, images were acquired from the dorsal striatum using a Leica DM IRB microscope under a 20× objective. The number of p‐ERK, p‐MSK‐1, p‐ELK, p‐MEK‐1, p‐VG K+, c‐Fos, and DARPP‐32 positive cells was counted in 2–3 consecutive sections per mouse, bilaterally and averaged across the sections using the ImageJ software by a blind investigator to the condition. Estimation of nigral cell loss was assessed by quantifying the number of TH‐immunopositive neurons of the SNc in 360 μm‐spaced sections for each animal.

pELK = assay: Striatal pELK immunohistochemistry 1 h after single injection; assay type: in vivo, mouse; conditions: single injection 20 mg/kg i.p., individual mice
Procedure: as §1, §2

c-Fos = assay: Striatal c-Fos immunohistochemistry 1 h after single injection; assay type: in vivo, mouse; conditions: single injection 20 mg/kg i.p., individual mice
Procedure: as §1, §2

[1] = test system: voltage-gated K+ (Kv4.2) channel phosphorylation; assay: Striatal phospho-Kv4.2 immunohistochemistry 1 h after single injection; assay type: in vivo, mouse; conditions: single injection 20 mg/kg i.p., individual mice
Procedure: as §1, §2

p44 ERK1 and p42 ERK2 = assay: Western blot of pERK1/2 and total ERK1/2 in HEK293 cells; assay type: cell-based; conditions: serum-starved HEK 293 cells, 50 μM, 15 min
Procedure: (§3) For Western blot and immunofluorescence analysis, 0.6 × 10^6 HEK293 cells were seeded in 6‐well plates in the presence of DMEM High Glucose GlutaMax (Thermo Fisher Scientific) containing 10% Foetal Bovine Serum (FBS, Thermo Fisher Scientific) and 100 U/ml penicillin/streptomycin (Thermo Fisher Scientific). For Western blot analysis to assess ERK1/2 and phospho‐ERK1/2 levels, cells were serum starved for 24 h and incubated with RB5 50 μM or FBS 20% for 15 min at 37°C. To assess JNK and phospho‐JNK levels, cells were incubated with RB5 50 μM or anisomycin 5 μM for 30 min at 37°C. For immunofluorescence analysis, cells were serum‐starved for 24 h and incubated with 50 μM RB5 or 20% FBS for 15 min at 37°C.
Cells were collected in ice‐cold lysis buffer (20 mM Tris HCl pH 7.5, 150 mM NaCl, 1% Triton, 1 mM EDTA, complete EDTA‐free protease inhibitor cocktail (Roche), 1 mM sodium orthovanadate, 1 mM sodium fluoride, 1 mM b‐glycerophosphate). Protein concentration was determined with the Biorad DC protein assay. Equal amounts of proteins ([…]) were boiled in sample buffer, separated by SDS‐PAGE, and transferred to nitrocellulose membranes (Amersham). […]

pERK in DG = assay: pERK in dentate gyrus of Tg2576 mice; assay type: in vivo, mouse; conditions: for pERK in dentate gyrus (Fig 5 panel k): individual animals
Procedure: Immunohistochemistry was performed as described in Papale et al ([2016]). Briefly, 1 h after blocking in 5% normal goat serum and 0.1% Triton X‐100 solution, free‐floating sections were incubated overnight at 4°C with one of the following primary antibodies: anti‐phospho‐p44/42 MAP kinase (Thr202/Tyr204) (1:200, Cell Signaling Technology #9101), anti‐phospho–Elk‐1 (Ser383) (1:100, Cell Signaling #9181), anti‐phospho‐Kv4.2 (Thr607)‐R (1:100, Santa Cruz sc22254‐R), anti‐phospho‐MSK‐1 (1:100 Cell Signaling Technology #9595), anti‐phospho‐MEK1/2 (Ser218/222) (1:100, sc‐7995 Santa Cruz Biotechnology), c‐Fos (1:100, sc‐52 Santa Cruz Biotechnology), tyrosine Hydroxylase (monoclonal 1:1,000, Sigma Aldrich, Italy) and anti‐DARPP‐32 (H3) (1:100, Santa Cruz Biotechnology, #sc‐271111) overnight at 4°C. Sections were then incubated with biotinylated goat anti‐rabbit IgG (1:200, Vector Laboratories) or biotinylated goat anti‐mouse (1:200, Vector Laboratories) for 2 h. The classic avidin‐peroxidase complex (ABC, Vector, UK) protocol was applied, using 3,3′‐diaminobenzidine (DAB, Sigma) as a chromogen.
Tg2576 mice were administered with RB5 or Scramble (20 mg/kg i.p.) for either 7 days, for IHC analysis, or with a single injection (20 mg/kg i.p.), for behavioral analysis.

ERK1/2 in HEK293 cells = assay: ERK1/2 immunofluorescence (nuclear translocation) in HEK293 cells; assay type: cell-based; conditions: HEK293, siRNA 200 nM 24 h, then RB5 50 μM 15 min
Procedure: as §3
After rinsing in PBS, cells were fixed in 4% PFA and permeabilized with increasing concentrations of methanol (33, 50, 75, and 95% in PBS, 2 min each at room temperature), followed by 100% methanol for 10 min at −20°C. […] The mean fluorescence intensity in the nucleus was calculated automatically by Fiji‐ImageJ software in 8–10 fields per slide. […]

Row | Substance | p-MEK-1 positive cells in striatum (MEK-1 phosphorylation) | pELK positive cells in striatum (pELK) | c-Fos positive cells in striatum (c-Fos) | phospho-Kv4.2 positive cells in striatum [1] | p44/p42 protein levels (Western blot) (p44 ERK1 and p42 ERK2) | p44 ERK1 and p42 ERK2 phosphorylation (Western blot) (p44 ERK1 and p42 ERK2) | ERK phosphorylation in dentate gyrus (pERK in DG; Tg2576 mice, 7 months old, 20 mg/kg i.p. for 7 days) | pERK in dentate gyrus (Fig 5 panel k) (pERK in DG; Tg2576 mice) | pERK in dentate gyrus (Fig 5 panel k) (pERK in DG; WT mice) | ERK1/2 nuclear translocation after KPNA2 downregulation (ERK1/2 in HEK293 cells)
1 | SCR: ineffective Scramble version of RB5 containing a TAT sequence (GRKKRRQRRRPPRVGPGVPEGVGVAVFGVKEPGQTGDVGPVGE) [reference compound] | 385.714 and 492.857 and 471.429 and 371.429 and 478.571 and 335.714 and 407.143 and 328.571 and 342.857 and 257.143 and 442.857 and 264.286 and 542.857 | 323.81 and 423.81 and 452.381 and 228.571 and 433.333 and 633.333 and 371.429 and 404.762 and 166.667 and 219.048 and 309.524 and 280.952 and 295.238 and 195.238 and 133.333 | 461.905 and 395.238 and 423.81 and 380.952 and 419.048 and 352.381 and 438.095 and 376.19 and 604.762 and 404.762 and 590.476 and 552.381 and 490.476 and 290.476 | 690.476 and 419.048 and 495.238 and 514.286 and 895.238 and 652.381 and 457.143 and 633.333 and 452.381 and 780.952 and 561.905 and 657.143 and 738.095 and 604.762 | – | – | – | – | – | –
2 | GRKKRRQRRRPPQGGGGGEPRRTEGVGPGVPGEVEMVKGQPFDV [RB5, six D-amino acids, acetylated N-terminus] | did not influence the phosphorylation and 335.714 and 385.714 and 421.429 and 400 and 314.286 and 271.429 and 307.143 and 464.286 and 371.429 and 428.571 and 392.857 and 285.714 and 500 | selectively activated and 980.952 and 828.571 and 933.333 and 1047.62 and 938.095 and 852.381 and 1080.95 and 1147.62 and 700 and 838.095 and 761.905 and 809.524 and 871.429 and 766.667 | selectively activated and 771.429 and 809.524 and 757.143 and 976.19 and 723.81 and 795.238 and 914.286 and 857.143 and 814.286 and 852.381 and 738.095 and 761.905 and 961.905 and 728.571 | did not influence the phosphorylation and 523.81 and 680.952 and 528.571 and 533.333 and 561.905 and 538.095 and 490.476 and 742.857 and 552.381 and 633.333 and 638.095 and 547.619 | without affecting p44/p42 protein levels | sustained a strong p44 ERK1 and p42 ERK2 phosphorylation | restored ERK phosphorylation | 11.21 and 6.88 and 9.13 and 7.17 and 10.84 and 11.62 and 10.66 and 8.7 | 8.18 and 9.67 and 8.87 and 7.48 and 10.41 and 9.92 and 13.01 | did not further enhance ERK1/2 nuclear translocation

— PMC10630888, “Nuclear ERK1/2 signaling potentiation enhances neuroprotection and cognition via Importinα1/KPNA2” (EMBO Molecular Medicine, 2023)
